Legend:
wild oat [1] = assay: Test Example 4: herbicidal effect by soil treatment (Table 19, symbol I); assay type: in vivo, wild oat (Avena fatua); details: amount of applied herbicide 320 g/ha
Procedure, shortened: (§1)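 Seeds were sown in sterilized diluvial soil and covered with about 1.5 cm of soil. An emulsion formulation diluted with water to a predetermined herbicide amount was sprayed evenly onto the soil surface. Plants grew in a greenhouse at 25° C. to 30° C., and the effect was scored three weeks after application using criteria from an earlier test.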

barnyard grass [2] = assay: Test Example 3: herbicidal effect by foliage application, Wagner pot (Table 18, symbol H); assay type: in vivo, barnyard grass (Echinochloa crus-galli); details: 320 g/ha
Procedure, shortened: (§2)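 Plants were sown in alluvial soil held under 0.1–0.5 cm standing water and grown 14 days in a greenhouse at 25–30 °C. An emulsifiable formulation, water-diluted to the set dose, was then sprayed onto the foliage, and effects were scored three weeks later using previously defined criteria.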

chickweed [3] = assay: Test Example 4: herbicidal effect by soil treatment (Table 19, symbol P); assay type: in vivo, common chickweed (Stellaria media); details: amount of applied herbicide 320 g/ha
Procedure, shortened: as §1

windgrass [4] = assay: Test Example 4: herbicidal effect by soil treatment (Table 19, symbol L); assay type: in vivo, windgrass (Apera spica-venti); details: amount of applied herbicide 320 g/ha
Procedure, shortened: as §1

rice flat sedge = assay: Test Example 3: herbicidal effect by foliage application, Wagner pot (Table 18, symbol E); assay type: in vivo, rice flat sedge (Cyperus iria); details: 320 g/ha
Procedure, shortened: as §2

barnyard grass [5] = assay: Test Example 4: herbicidal effect by soil treatment (Table 19, symbol H); assay type: in vivo, barnyard grass (Echinochloa crus-galli); details: amount of applied herbicide 320 g/ha
Procedure, shortened: as §1

green foxtail [6] = assay: Test Example 5: herbicidal effect by foliage application, plastic box (Table 20, symbol G); assay type: in vivo, green foxtail (Setaria viridis); details: 320 g/ha, foliage application after 14-day growth, evaluated three weeks after application
Procedure, shortened: (§3)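 Plants sown in sterilized diluvial soil and grown 14 days in a greenhouse at 25° C to 30° C, then sprayed on the foliage with the compound's emulsion diluted in water to a predetermined herbicide amount. Injury to weeds and crops scored three weeks after application on a visual rating scale.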

late watergrass = assay: Test Example 1: herbicidal activity, application before weed generation under submerged conditions (Table 16, symbol A); assay type: in vivo, late watergrass (Echinochloa oryzicola); details: amount of applied herbicide 320 g/ha
Procedure, shortened: (§4)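 Submerged Wagner pots (alluvial soil, 4 cm water) sown with weed seeds and planted with 2.5-leaf rice seedlings; emulsifiable concentrate diluted in water applied to water surface on sowing day. Held in greenhouse at 25-30 °C; injury scored 0-5 by herbicidal rate after three weeks.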

redroot pigweed [7] = assay: Test Example 4: herbicidal effect by soil treatment (Table 19, symbol N); assay type: in vivo, redroot pigweed (Amaranthus retroflexus); details: amount of applied herbicide 320 g/ha
Procedure, shortened: as §1

chickweed [8] = assay: Test Example 5: herbicidal effect by foliage application, plastic box (Table 20, symbol P); assay type: in vivo, common chickweed (Stellaria media); details: 320 g/ha, foliage application after 14-day growth, evaluated three weeks after application
Procedure, shortened: as §3

oval-leafed pondweed = assay: Test Example 1: herbicidal activity, application before weed generation under submerged conditions (Table 16, symbol C); assay type: in vivo, oval-leafed pondweed (Monochoria vaginalis); details: amount of applied herbicide 320 g/ha
Procedure, shortened: as §4

barnyard grass [9] = assay: Test Example 5: herbicidal effect by foliage application, plastic box (Table 20, symbol H); assay type: in vivo, barnyard grass (Echinochloa crus-galli); details: 320 g/ha, foliage application after 14-day growth, evaluated three weeks after application
Procedure, shortened: as §3

windgrass [10] = assay: Test Example 5: herbicidal effect by foliage application, plastic box (Table 20, symbol L); assay type: in vivo, windgrass (Apera spica-venti); details: 320 g/ha, foliage application after 14-day growth, evaluated three weeks after application
Procedure, shortened: as §3

Japanese bulrush = assay: Test Example 1: herbicidal activity, application before weed generation under submerged conditions (Table 16, symbol B); assay type: in vivo, Japanese bulrush (Schoenoplectus juncoides); details: amount of applied herbicide 320 g/ha
Procedure, shortened: as §4

southern crabgrass [11] = assay: Test Example 5: herbicidal effect by foliage application, plastic box (Table 20, symbol F); assay type: in vivo, southern crabgrass (Digitaria ciliaris); details: 320 g/ha, foliage application after 14-day growth, evaluated three weeks after application
Procedure, shortened: as §3

Italian ryegrass [12] = assay: Test Example 5: herbicidal effect by foliage application, plastic box (Table 20, symbol K); assay type: in vivo, Italian ryegrass (Lolium multiflorum); details: 320 g/ha, foliage application after 14-day growth, evaluated three weeks after application
Procedure, shortened: as §3

green foxtail [13] = assay: Test Example 4: herbicidal effect by soil treatment (Table 19, symbol G); assay type: in vivo, green foxtail (Setaria viridis); details: amount of applied herbicide 320 g/ha
Procedure, shortened: as §1

Italian ryegrass [14] = assay: Test Example 4: herbicidal effect by soil treatment (Table 19, symbol K); assay type: in vivo, Italian ryegrass (Lolium multiflorum); details: amount of applied herbicide 320 g/ha
Procedure, shortened: as §1

velvetleaf [15] = assay: Test Example 5: herbicidal effect by foliage application, plastic box (Table 20, symbol M); assay type: in vivo, velvetleaf (Abutilon theophrasti); details: 320 g/ha, foliage application after 14-day growth, evaluated three weeks after application
Procedure, shortened: as §3

redroot pigweed [16] = assay: Test Example 5: herbicidal effect by foliage application, plastic box (Table 20, symbol N); assay type: in vivo, redroot pigweed (Amaranthus retroflexus); details: 320 g/ha, foliage application after 14-day growth, evaluated three weeks after application
Procedure, shortened: as §3

persian speedwell [17] = assay: Test Example 4: herbicidal effect by soil treatment (Table 19, symbol R); assay type: in vivo, Persian speedwell (Veronica persica); details: amount of applied herbicide 320 g/ha
Procedure, shortened: as §1

lambsquarters [18] = assay: Test Example 4: herbicidal effect by soil treatment (Table 19, symbol O); assay type: in vivo, lambsquarters (Chenopodium album); details: amount of applied herbicide 320 g/ha
Procedure, shortened: as §1

Chinese sprangletop = assay: Test Example 3: herbicidal effect by foliage application, Wagner pot (Table 18, symbol D); assay type: in vivo, chinese sprangletop (Leptochloa chinensis); details: 320 g/ha
Procedure, shortened: as §2

southern crabgrass [19] = assay: Test Example 4: herbicidal effect by soil treatment (Table 19, symbol F); assay type: in vivo, southern crabgrass (Digitaria ciliaris); details: amount of applied herbicide 320 g/ha
Procedure, shortened: as §1

lambsquarters [20] = assay: Test Example 5: herbicidal effect by foliage application, plastic box (Table 20, symbol O); assay type: in vivo, lambsquarters (Chenopodium album); details: 320 g/ha, foliage application after 14-day growth, evaluated three weeks after application
Procedure, shortened: as §3

blackgrass [21] = assay: Test Example 5: herbicidal effect by foliage application, plastic box (Table 20, symbol J); assay type: in vivo, blackgrass (Alopecurus myosuroides); details: 320 g/ha, foliage application after 14-day growth, evaluated three weeks after application
Procedure, shortened: as §3

blackgrass [22] = assay: Test Example 4: herbicidal effect by soil treatment (Table 19, symbol J); assay type: in vivo, blackgrass (Alopecurus myosuroides); details: amount of applied herbicide 320 g/ha
Procedure, shortened: as §1

persian speedwell [23] = assay: Test Example 5: herbicidal effect by foliage application, plastic box (Table 20, symbol R); assay type: in vivo, Persian speedwell (Veronica persica); details: 320 g/ha, foliage application after 14-day growth, evaluated three weeks after application
Procedure, shortened: as §3

velvetleaf [24] = assay: Test Example 4: herbicidal effect by soil treatment (Table 19, symbol M); assay type: in vivo, velvetleaf (Abutilon theophrasti); details: amount of applied herbicide 320 g/ha
Procedure, shortened: as §1

wild oat [25] = assay: Test Example 5: herbicidal effect by foliage application, plastic box (Table 20, symbol I); assay type: in vivo, wild oat (Avena fatua); details: 320 g/ha, foliage application after 14-day growth, evaluated three weeks after application
Procedure, shortened: as §3

For `COc1ccccc1-c1sc2c(F)cccc2c1-c1c(O)c(C)nn(C)c1=O` [4-003], the “Herbicidal effect by soil treatment, I: wild oat” value (wild oat [1]) was 0 (Herbicidal rate of 5% or less (almost no effect)), the “herbicidal effect on barnyard grass (H)” value (barnyard grass [2]) was 3 (Herbicidal rate of 40% or more and less than 70%) and the “Herbicidal effect by soil treatment, P: chickweed” value (chickweed [3]) was 1 (Herbicidal rate of 5% or more and less than 20%). For the same compound, the “Herbicidal effect by soil treatment, L: windgrass” value (windgrass [4]) was 0 (Herbicidal rate of 5% or less (almost no effect)), the “herbicidal effect on rice flat sedge (E)” value (rice flat sedge) was 3 (Herbicidal rate of 40% or more and less than 70%) and the “Herbicidal effect by soil treatment, H: barnyard grass” value (barnyard grass [5]) was 0 (Herbicidal rate of 5% or less (almost no effect)). For the same compound, the “herbicidal effect on G: green foxtail (evaluation grade 0-5)” value (green foxtail [6]) was 4 (Herbicidal rate of 70% or more and less than 90%), the “Herbicidal effect, A: late watergrass” value (late watergrass) was 3 (Herbicidal rate of 40% or more and less than 70%) and the “Herbicidal effect by soil treatment, N: redroot pigweed” value (redroot pigweed [7]) was 4 (Herbicidal rate of 70% or more and less than 90%). The “herbicidal effect on P: chickweed (evaluation grade 0-5)” value (chickweed [8]) was 5 (Herbicidal rate of 90% or more (almost completely withered)), the “Herbicidal effect, C: oval-leafed pondweed” value (oval-leafed pondweed) was 0 (Herbicidal rate of 5% or less (almost no effect)) and the “herbicidal effect on H: barnyard grass (evaluation grade 0-5)” value (barnyard grass [9]) was 1 (Herbicidal rate of 5% or more and less than 20%). The “herbicidal effect on L: windgrass (evaluation grade 0-5)” value (windgrass [10]) was 3 (Herbicidal rate of 40% or more and less than 70%), the “Herbicidal effect, B: Japanese bulrush” value (Japanese bulrush) was 0 (Herbicidal rate of 5% or less (almost no effect)) and the “herbicidal effect on F: southern crabgrass (evaluation grade 0-5)” value (southern crabgrass [11]) was 1 (Herbicidal rate of 5% or more and less than 20%). The “herbicidal effect on K: Italian ryegrass (evaluation grade 0-5)” value (Italian ryegrass [12]) was 4 (Herbicidal rate of 70% or more and less than 90%), the “Herbicidal effect by soil treatment, G: green foxtail” value (green foxtail [13]) was 0 (Herbicidal rate of 5% or less (almost no effect)) and the “Herbicidal effect by soil treatment, K: Italian ryegrass” value (Italian ryegrass [14]) was 0 (Herbicidal rate of 5% or less (almost no effect)). For the same compound, the “herbicidal effect on M: velvetleaf (evaluation grade 0-5)” value (velvetleaf [15]) was 3 (Herbicidal rate of 40% or more and less than 70%), the “herbicidal effect on N: redroot pigweed (evaluation grade 0-5)” value (redroot pigweed [16]) was 3 (Herbicidal rate of 40% or more and less than 70%) and the “Herbicidal effect by soil treatment, R: persian speedwell” value (persian speedwell [17]) was 1 (Herbicidal rate of 5% or more and less than 20%). For the same compound, the “Herbicidal effect by soil treatment, O: lambsquarters” value (lambsquarters [18]) was 3 (Herbicidal rate of 40% or more and less than 70%), the “herbicidal effect on Chinese sprangletop (D)” value (Chinese sprangletop) was 3 (Herbicidal rate of 40% or more and less than 70%) and the “Herbicidal effect by soil treatment, F: southern crabgrass” value (southern crabgrass [19]) was 0 (Herbicidal rate of 5% or less (almost no effect)). The “herbicidal effect on O: lambsquarters (evaluation grade 0-5)” value (lambsquarters [20]) was 3 (Herbicidal rate of 40% or more and less than 70%), the “herbicidal effect on J: blackgrass (evaluation grade 0-5)” value (blackgrass [21]) was 4 (Herbicidal rate of 70% or more and less than 90%) and the “Herbicidal effect by soil treatment, J: blackgrass” value (blackgrass [22]) was 0 (Herbicidal rate of 5% or less (almost no effect)). For the same compound, the “herbicidal effect on R: persian speedwell (evaluation grade 0-5)” value (persian speedwell [23]) was 5 (Herbicidal rate of 90% or more (almost completely withered)), the “Herbicidal effect by soil treatment, M: velvetleaf” value (velvetleaf [24]) was 0 (Herbicidal rate of 5% or less (almost no effect)) and the “herbicidal effect on I: wild oat (evaluation grade 0-5)” value (wild oat [25]) was 0 (Herbicidal rate of 5% or less (almost no effect)).
